Tests used:
Assay in all cases: Kinase specificity assay (33P phosphoryl transfer, LCCA or AlphaScreen)
Assay type in all cases: biochemical
Cdc2 = Cdc2 (Homo sapiens, UniProt P06493); conditions: ATP close to KM; read-out: Cdc2 inhibition, IC50
Description: (§1) Kinase activity and compound inhibition are investigated using one or more of the three assay formats described below. The ATP concentrations for each assay are selected to be close to the Michaelis-Menten constant (KM) for each individual kinase. Dose-response experiments are performed at 10 different inhibitor concentrations in a 384-well plate format. The data are fitted to the following four-parameter equation: Y=Min+(Max−Min)/(1+(X/IC50)^H) where Y is the observed signal, X is the inhibitor concentration, Min is the background signal in the absence of enzyme (0% enzyme activity), Max is the signal in the absence of inhibitor (100% enzyme activity), IC50 is the inhibitor concentration at 50% enzyme inhibition and H represents the empirical Hill's slope to measure the cooperativity. Typically H is close to unity. ^33P Phosphoryl Transfer Assay:
(§2) Greiner 384-well white, clear bottom, high binding plates are coated with 2 μg/well of protein or peptide substrate in a 50 μL volume overnight at ambient temperature. The coating buffer typically contains 40 μg/mL substrate, 22.5 mM Na2CO3, 27.5 mM NaHCO3, 150 mM NaCl and 3 mM NaN3. The coating solution is aspirated and the plates are washed once with 50 μL of assay buffer and padded dry. Subsequently compounds and enzymes are mixed with γ^33P-ATP (3.3 μCi/nmol) in a total volume of 20 uL in suitable assay buffers. The mixture is incubated at ambient temperature for 1.5-2.5 hrs and terminated by aspiration using a Molecular Devices EMBLA 96-head plate washer. The plates are subsequently washed 6-12 times with PBST or TBS buffer. Scintillation fluid (50 μl/well) is then added, the plates are sealed and activity assessed by liquid scintillation spectrometry using a Perkin Elmer MicroBeta TriLux.
(§3) In the LCCA assays, kinase activity is measured as the percent ATP consumed following the kinase reaction using luciferase-luciferin-coupled chemiluminescence. Greiner 384-well white, clear bottom, medium binding plates are used for LCCA. Briefly, the kinase reaction is initiated by mixing compounds, ATP and kinase in a 20 uL volume. The mixture is incubated at ambient temperature for 2-4 hrs. At the end of the kinase reaction, a 20 uL luciferase-luciferin mix is added and the chemiluminescent signal is read using a Wallac Victor^2 reader. The luciferase-luciferin mix consists of 50 mM HEPES, pH 7.8, 8.5 ug/mL oxalic acid (pH 7.8), 5 (or 50) mM DTT, 0.4% Triton X-100, 0.25 mg/mL coenzyme A, 63 uM AMP, 28 ug/mL luciferin and 40,000 units of light/mL luciferase. For the LCCA assays, total ATP consumption has been standardized to 25-45% and the IC50 values correlates well with those determined by radiometric assays.
(§4) AlphaScreen technology is a proximity assay which utilizes the increase in fluorescent signal when donor and acceptor beads are close in proximity. Biotinylated poly(Glu,Tyr) 4:1 is used as the kinase substrate, in conjunction with streptavidin-coated donor beads and anti-phosphortyrosine antibody PY100-coated acceptor beads. Upon phosphorylation, the peptide substrate can bind to both donor and acceptor beads giving rise to an increase in fluorescence. Compounds, ATP, biotinylated poly(Glu, Tyr) and kinases are mixed in a volume of 20 uL for 1 hr at ambient temperature using Greiner 384-well white clear bottom medium binding plates. Following incubation a 10 uL solution containing […] AlphaScreen beads, 75 mM Hepes, pH 7.4, 300 mM NaCl, 120 mM EDTA, 0.3% BSA and 0.03% Tween-20 is added to each well. After 2-16 hr incubation of the beads, plates are read in a Perkin Elmer AlphaQuest reader. The IC50 values correlates well with those of radiometric assays.

EMK = EMK (Homo sapiens, UniProt Q7KZI7); conditions: ATP close to KM; read-out: EMK inhibition, IC50
EMK, sequence (Q7KZI7 whole entry): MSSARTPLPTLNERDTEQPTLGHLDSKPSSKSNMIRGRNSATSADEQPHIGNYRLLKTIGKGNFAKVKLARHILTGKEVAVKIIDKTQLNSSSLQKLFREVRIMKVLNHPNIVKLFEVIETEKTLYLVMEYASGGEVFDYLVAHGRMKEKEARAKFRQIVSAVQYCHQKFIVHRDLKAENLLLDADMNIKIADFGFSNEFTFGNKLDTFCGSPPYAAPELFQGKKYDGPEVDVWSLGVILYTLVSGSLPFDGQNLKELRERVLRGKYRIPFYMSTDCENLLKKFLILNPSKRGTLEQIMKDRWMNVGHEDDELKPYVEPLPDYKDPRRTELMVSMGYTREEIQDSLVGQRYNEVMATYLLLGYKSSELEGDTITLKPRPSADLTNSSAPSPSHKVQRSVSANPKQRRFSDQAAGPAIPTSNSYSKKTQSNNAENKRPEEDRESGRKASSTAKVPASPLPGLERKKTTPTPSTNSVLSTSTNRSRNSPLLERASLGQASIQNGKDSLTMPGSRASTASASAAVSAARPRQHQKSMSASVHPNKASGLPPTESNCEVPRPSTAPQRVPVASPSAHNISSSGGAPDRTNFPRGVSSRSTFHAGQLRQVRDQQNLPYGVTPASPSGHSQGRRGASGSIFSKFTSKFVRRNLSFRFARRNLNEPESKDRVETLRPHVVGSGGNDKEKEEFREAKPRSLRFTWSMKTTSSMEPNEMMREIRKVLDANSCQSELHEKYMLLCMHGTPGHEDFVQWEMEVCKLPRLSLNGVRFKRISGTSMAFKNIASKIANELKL
Description: as §1, §2, §3, §4

EphA2R = EphA2R (Homo sapiens, UniProt P29317); conditions: ATP close to KM; read-out: EphA2R inhibition, IC50
Description: as §1, §2, §3, §4

ErbB2 = ErbB2 (Homo sapiens, UniProt P04626); conditions: ATP close to KM; read-out: ErbB2 inhibition, IC50
ErbB2, sequence (P04626 23-1255): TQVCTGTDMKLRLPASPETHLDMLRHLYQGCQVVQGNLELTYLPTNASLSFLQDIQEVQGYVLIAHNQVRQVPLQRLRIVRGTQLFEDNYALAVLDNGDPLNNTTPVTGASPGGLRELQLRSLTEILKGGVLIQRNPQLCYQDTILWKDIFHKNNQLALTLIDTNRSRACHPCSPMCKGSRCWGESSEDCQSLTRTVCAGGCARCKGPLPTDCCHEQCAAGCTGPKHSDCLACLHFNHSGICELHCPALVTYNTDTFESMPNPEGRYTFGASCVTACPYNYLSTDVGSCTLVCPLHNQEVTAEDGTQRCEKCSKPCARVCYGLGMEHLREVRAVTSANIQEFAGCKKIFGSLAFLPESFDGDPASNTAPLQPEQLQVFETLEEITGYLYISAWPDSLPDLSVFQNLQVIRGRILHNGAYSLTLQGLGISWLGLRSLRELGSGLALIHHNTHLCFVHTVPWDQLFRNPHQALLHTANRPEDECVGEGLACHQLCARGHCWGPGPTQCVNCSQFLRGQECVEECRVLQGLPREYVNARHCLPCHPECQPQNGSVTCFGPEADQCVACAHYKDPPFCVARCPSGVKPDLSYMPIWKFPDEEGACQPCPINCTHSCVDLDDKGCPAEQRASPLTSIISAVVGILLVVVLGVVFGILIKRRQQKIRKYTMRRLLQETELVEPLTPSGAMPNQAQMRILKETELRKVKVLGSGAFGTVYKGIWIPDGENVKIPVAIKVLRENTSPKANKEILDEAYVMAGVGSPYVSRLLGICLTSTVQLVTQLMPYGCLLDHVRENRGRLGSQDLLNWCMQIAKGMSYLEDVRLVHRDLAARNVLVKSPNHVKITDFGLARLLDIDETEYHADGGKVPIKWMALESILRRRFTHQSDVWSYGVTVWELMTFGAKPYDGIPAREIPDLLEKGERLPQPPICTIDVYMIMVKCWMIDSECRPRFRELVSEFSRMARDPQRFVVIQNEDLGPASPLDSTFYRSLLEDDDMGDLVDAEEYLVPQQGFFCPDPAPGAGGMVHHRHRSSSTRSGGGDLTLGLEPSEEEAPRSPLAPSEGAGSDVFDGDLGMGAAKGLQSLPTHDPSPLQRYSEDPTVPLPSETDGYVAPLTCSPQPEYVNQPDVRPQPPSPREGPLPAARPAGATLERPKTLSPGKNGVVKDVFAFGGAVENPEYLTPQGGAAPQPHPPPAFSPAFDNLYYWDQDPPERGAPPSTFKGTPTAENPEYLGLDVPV
Description: as §1, §2, §3, §4

Fyn = Fyn (Homo sapiens, UniProt P06241); conditions: ATP close to KM; read-out: Fyn inhibition, IC50
Fyn, sequence (P06241 whole entry): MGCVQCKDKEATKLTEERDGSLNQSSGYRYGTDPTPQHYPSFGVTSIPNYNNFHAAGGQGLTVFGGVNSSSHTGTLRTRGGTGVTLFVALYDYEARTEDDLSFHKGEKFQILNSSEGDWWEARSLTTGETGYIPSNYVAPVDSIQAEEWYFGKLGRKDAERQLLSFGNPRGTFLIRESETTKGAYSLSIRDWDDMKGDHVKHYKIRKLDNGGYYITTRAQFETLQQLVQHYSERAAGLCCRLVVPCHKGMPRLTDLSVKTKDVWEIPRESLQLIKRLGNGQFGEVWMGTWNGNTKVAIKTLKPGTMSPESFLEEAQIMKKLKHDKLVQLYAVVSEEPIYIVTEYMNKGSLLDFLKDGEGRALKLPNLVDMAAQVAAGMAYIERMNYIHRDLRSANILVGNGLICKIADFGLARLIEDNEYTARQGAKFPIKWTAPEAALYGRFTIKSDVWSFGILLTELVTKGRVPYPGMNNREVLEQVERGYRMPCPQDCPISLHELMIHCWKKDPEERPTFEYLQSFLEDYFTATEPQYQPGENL
Description: as §1, §2, §3, §4

MAP4K3 = molecular target: T1, MAP4K3 (Homo sapiens, UniProt Q8IVH8); conditions: ATP close to KM; read-out: MAP4K3 inhibition, IC50
T1 sequence (Q8IVH8 1-894): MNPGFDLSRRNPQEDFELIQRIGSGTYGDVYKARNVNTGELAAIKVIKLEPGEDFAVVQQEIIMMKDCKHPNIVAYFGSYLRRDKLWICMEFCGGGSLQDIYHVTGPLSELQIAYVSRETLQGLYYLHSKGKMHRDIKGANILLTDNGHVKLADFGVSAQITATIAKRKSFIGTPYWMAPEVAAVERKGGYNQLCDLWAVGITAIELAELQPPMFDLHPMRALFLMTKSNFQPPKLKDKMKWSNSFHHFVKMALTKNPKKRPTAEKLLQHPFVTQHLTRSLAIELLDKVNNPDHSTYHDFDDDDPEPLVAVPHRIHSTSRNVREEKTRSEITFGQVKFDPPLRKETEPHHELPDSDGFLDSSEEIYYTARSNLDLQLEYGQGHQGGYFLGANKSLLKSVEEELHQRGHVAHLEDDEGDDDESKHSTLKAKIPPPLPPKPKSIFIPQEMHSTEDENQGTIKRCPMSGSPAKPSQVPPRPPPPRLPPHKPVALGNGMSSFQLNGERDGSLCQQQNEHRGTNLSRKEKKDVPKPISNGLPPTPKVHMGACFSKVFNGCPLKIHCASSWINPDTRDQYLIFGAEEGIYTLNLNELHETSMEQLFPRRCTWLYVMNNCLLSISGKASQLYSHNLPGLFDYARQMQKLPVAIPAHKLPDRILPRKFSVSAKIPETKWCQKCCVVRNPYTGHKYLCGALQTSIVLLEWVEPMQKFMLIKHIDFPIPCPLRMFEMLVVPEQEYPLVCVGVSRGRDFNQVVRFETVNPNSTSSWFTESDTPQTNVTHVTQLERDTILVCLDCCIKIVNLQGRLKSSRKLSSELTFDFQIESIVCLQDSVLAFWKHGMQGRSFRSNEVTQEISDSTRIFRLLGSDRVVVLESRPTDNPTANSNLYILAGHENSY
Description: as §1, §2, §3, §4

PDGFR-β = PDGFR-β (Homo sapiens, UniProt P09619); conditions: ATP close to KM; read-out: PDGFR-β inhibition, IC50
PDGFR-β, sequence (P09619 33-1106): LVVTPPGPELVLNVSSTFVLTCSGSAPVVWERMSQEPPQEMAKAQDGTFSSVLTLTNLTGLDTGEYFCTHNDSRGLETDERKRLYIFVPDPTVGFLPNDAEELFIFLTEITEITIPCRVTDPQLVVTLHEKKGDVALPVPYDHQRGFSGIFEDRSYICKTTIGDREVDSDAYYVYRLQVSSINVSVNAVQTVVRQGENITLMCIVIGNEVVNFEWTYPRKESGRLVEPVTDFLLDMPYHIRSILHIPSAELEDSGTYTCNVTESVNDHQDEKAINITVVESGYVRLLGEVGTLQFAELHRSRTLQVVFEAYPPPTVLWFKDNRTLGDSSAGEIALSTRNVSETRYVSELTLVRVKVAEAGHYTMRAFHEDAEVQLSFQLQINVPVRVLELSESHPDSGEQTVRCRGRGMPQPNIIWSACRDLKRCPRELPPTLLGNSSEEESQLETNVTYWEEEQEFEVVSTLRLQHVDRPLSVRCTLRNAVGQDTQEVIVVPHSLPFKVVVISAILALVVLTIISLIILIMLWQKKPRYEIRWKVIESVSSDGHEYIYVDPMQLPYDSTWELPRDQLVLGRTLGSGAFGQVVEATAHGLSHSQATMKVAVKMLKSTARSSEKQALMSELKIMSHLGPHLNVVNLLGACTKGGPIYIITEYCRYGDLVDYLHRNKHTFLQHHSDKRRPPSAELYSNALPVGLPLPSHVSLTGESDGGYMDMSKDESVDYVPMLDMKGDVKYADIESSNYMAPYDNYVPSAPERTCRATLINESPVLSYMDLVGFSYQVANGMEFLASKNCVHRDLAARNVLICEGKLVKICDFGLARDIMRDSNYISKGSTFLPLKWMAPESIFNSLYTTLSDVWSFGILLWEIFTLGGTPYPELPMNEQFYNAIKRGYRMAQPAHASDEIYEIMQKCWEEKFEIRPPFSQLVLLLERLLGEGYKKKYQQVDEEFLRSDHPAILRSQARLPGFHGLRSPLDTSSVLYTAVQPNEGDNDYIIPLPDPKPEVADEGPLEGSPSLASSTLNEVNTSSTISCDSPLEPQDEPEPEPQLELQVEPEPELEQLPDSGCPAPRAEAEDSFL
Description: as §1, §2, §3, §4

PKA = PKA (Homo sapiens, UniProt P17612); conditions: ATP close to KM; read-out: PKA inhibition, IC50
Description: as §1, §2, §3, §4

Cdc2, sequence (P06493 whole entry): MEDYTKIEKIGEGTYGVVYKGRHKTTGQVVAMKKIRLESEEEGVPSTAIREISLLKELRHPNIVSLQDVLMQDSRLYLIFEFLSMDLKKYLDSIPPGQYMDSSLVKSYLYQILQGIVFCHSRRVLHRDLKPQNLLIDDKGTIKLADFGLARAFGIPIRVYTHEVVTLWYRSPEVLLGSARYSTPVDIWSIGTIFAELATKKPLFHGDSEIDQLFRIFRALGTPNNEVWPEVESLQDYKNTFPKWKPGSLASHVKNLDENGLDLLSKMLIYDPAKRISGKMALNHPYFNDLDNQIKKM
Cdc2, sequence (P14635 whole entry partner): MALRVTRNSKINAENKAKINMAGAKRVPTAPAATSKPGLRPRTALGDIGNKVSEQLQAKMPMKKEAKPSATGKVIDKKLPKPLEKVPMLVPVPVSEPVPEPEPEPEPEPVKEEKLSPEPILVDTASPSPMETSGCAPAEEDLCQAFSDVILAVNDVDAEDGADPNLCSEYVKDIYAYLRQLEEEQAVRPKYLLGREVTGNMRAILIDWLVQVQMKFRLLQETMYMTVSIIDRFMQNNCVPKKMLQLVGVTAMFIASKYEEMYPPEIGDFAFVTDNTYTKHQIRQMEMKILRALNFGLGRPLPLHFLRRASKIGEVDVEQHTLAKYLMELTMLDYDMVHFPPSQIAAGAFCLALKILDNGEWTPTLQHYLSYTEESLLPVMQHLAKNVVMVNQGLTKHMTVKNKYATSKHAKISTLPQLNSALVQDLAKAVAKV

Q: With NC(=O)c1nc(-c2cccc3ccccc23)cnc1N [Example 2, 3-Amino-6-naphthalen-1-ylpyrazine-2-carboxamide] as the compound, how does the IC50 (Cdc2) read?
A: The IC50 was ≥ 10 µM.

Q: And the IC50 (EMK)?
A: The IC50 was 1 to 10 µM.

Q: What about the IC50 (EphA2R) of the same compound?
A: Its IC50 is ≥ 10 µM.

Q: What about the IC50 (ErbB2) of the same compound?
A: Its IC50 is ≥ 10 µM.

Q: What about the IC50 (Fyn) of the same compound?
A: Its IC50 is 1 to 10 µM.

Q: What about the IC50 (MAP4K3) of the same compound?
A: Its IC50 is < 0.05 µM.

Q: What about the IC50 (PDGFR-β) of the same compound?
A: Its IC50 is 0.05 to 1 µM.

Q: What about the IC50 (PKA) of the same compound?
A: Its IC50 is 1 to 10 µM.
